In patent US6468537B1, “Localization of major peptide autoepitopes for nucleosome specific T cells of systemic lupus erythematosus” (The Board of Trustees of Northwestern University, priority 1999, dated 2002):

Legend:
[1] = test system: pathogenic Th clones from SNF1 mice; assay: Stimulation of nucleosome-specific pathogenic Th clones from SNF1 mice by eluted/synthetic peptides; format: cell-based, mouse; settings: A20 or splenic B+Mφ as APC
Experimental: Fresh splenic, CD4^+ T cells (5×10^5/well) were co-cultured in triplicate wells at an initial concentration of 5×10^5 cells per well, with 10^6 cells per well of either irradiated B+Mφ or mitomycin-C treated A20 APC. Varying concentrations of either control or test peptides were added and the cultures were adjusted to 200 microliters final volume of HL-1 serum-free medium (Hycor Biomedical Inc., Irvine, Calif.) cultures were incubated for 96 hours in flat bottom 96-well plates, and at 18 hours prior to harvesting the cells, 1 microcurie of 3H-Thymidine was added to each well. The incorporated radioactivity was measured by scintillation counting. The Stimulation Index (SI) was calculated by dividing the mean counts per minute (cpm) incorporated in co-cultures of T cells and APC with test peptide by the mean cpm incorporated in control peptide co-cultures. In the case of cytokine assays, experiments were carried out as described for the proliferation assays except that the culture supernatants were removed from duplicate co-culture wells after 24-46 hours of incubation and cytokine assays were performed.
An aliquot of 50 microliters from each HPLC fraction was assayed for stimulating ability as described above. Four characterized Th clones were used as indicators of cytokine secretion (IL-2 and/or IL-4) in response to the peptide fractions, using A20 or splenic B+Mψ as APCs (Adams, et al., 1991, Proc. Natl. Acad. Sci. USA 88:11271-11275; Shi, et al., 1998, J. Exp. Med. 187:367-378). […] Only two out of one hundred fractions tested were able to stimulate Th cell clones. […] The latter was further separated as described, and tested for active fractions of HPLC purified peptides.. Three naturally processed and presented, stimulatory epitopes were identified using these procedures. The sequences of the peptides are as follows: SQKEEEEGAQREKE (EP-1, SEQ ID NO: 23); DWMEEEHGAQREKE (EP-2, SEQ ID NO: 24); and […] (EP-3, or H522-42, SEQ ID NO: 25). The first two peptides were homologous to sequences in a transcription factor, BRN-3, which is identical in chicken, mice and humans (GenBank). […] EP-1 is highly homologous to EP-2, but it also matched a sequence in cytomegalovirus envelope protein at aa position 57-70. Most likely these peptides are derived from some transcription factor in the chromatin that was incubated with the APC. The third sequence (EP-3) was derived from histone H5 (aa position 22-42) in chicken nucleosome, which is homologous to histone H1 sequence of mice and humans at amino acid position 22-42 ([…], SEQ ID NO:26). […] Therefore, the mouse H122-42 is the autoantigenic peptide in mice and is also referred to herein as EP-3. Nested sequences and unrelated sequences that were obtained in the active fractions from the eluates were also synthesized and re-tested.

SNF1 mice = assay: Acceleration of SLE-associated nephritis by immunization with eluted peptides in adjuvant; format: in vivo, mouse
Excerpt: The animals received three more injections at two weeks interval with 50 micrograms of either an eluted peptide or the control peptide absorbed on alum (Pierce Chemical Co., Rockford, Ill.).

[2] = test system: Th clones 1D12, 5E9, 3F6, 1G1; assay: Helper assay: Th clones co-cultured with splenic B cells from SNF1 mice in presence of peptide; format: cell-based, mouse; settings: responder Th clones 5E9 and 3F6
Experimental: IgG autoantibodies to ssDNA, dsDNA, histones, and nucleosomes were quantitated using an ELISA as described previously (Mohan, et al., 1995, J. Immunol., 154:1470-1480; Mohan, et al., 1993, J. Exp. Med. 177:1367-1381; Burlingame, et al., 1993, J. Clin. Invest. 91:1687-1696; Losman, et al., 1992, J. Immunol., 148:1561-1569). Sera were diluted 1:100 and heat-inactivated before use. Serum from normal BALB/c mice were used as negative control. Anti-DNA mAbs 564 and 205 were used to generate standard curves (Adams, et al., 1991, Proc. Natl. Acad. Sci. USA 88:11281-11275; Mohan, et al., 1995, J. Immunol., 154:1470-1480; Mohan, et al., 1993, J. Exp. Med. 177:1367-1381; Sainis and Datta, 1988, J. Immunol. 140:2215-2224). For IgG autoantibodies to ssDNA, histones and nucleosomes, 1 unit per milliliter was considered to be equivalent to the activity of one microgram per milliliter of mAb 564, which recognizes all three autoantigens (Mohan, et al., 1995, J. Immunol., 154:1470-1480; Mohan, et al., 1993, J. Exp. Med. 177:1367-1381), and for IgG anti-dsDNA, 1 unit per milliliter was equivalent to the binding of 0.6 micrograms per milliliter of the mAb 205.
After seven days of co-culture, the supernatants were assayed for IgG antibodies to the autoantigens (ds-DNA, ss-DNA, nucleosome, and histone) by ELISA. […]

Sequence: STDHPKYSDMIVAAIQAEKNR (Histone fragment) [H122-42]
- stimulation of pathogenic Th clones [1]: equivalent to the chicken H52242 peptide
- stimulation of pathogenic Th clones ([1]; listed as EP-3): stimulatory
- development of severe nephritis (SNF1 mice; by 28 weeks of age): all the EP-3 immunized mice developed severe nephritis
- onset/rate of disease relative to control group (CFA alone or OVA peptide in CFA) (SNF1 mice; immunization from 12 weeks): developed severe nephritis earlier
- time to severe nephritis in some immunized animals (SNF1 mice; just after the first booster immunization): 2-3 weeks
- mice succumbed to severe lupus nephritis (SNF1 mice; within four weeks of the first injection, peptide in CFA): Eighty percent
- augmentation of autoantibody-inducing help [2]: almost as much as the whole nucleosome
